Measurements reported in ChEMBL document CHEMBL5230090, “Recent progress in Keap1-Nrf2 protein-protein interaction inhibitors” (Eur J Med Chem, 2020).
Several values for one entry are separate records, joined by “and”; a condition that tells them apart may be missing. Identical values can stand only once. One block for each molecule: values may come before it. Starred links: 1 amine or outer side, 2 acyl side, 3 side chain; linkers in the order of their positions; H or OH if unused. Positions of bridges follow the written chain, without caps; N, C: chain ends. Non-standard residues stand in square brackets, D forms with d. Residues, ends and D or L forms follow the SMILES beside them. Chains are numbered I, II in the order given. X1 = NC(=O)[C@H](CCCCNC(=O)COCCOCCN[*:1])N[*:2]; 2Nal = N[C@@H](Cc1ccc2ccccc2c1)C(=O)O; CH2CH2 = C(C[*:2])[*:1]

Assays:
Keap1/Nrf2 [1] = biological target: T1, Keap1/Nrf2 (Homo sapiens, UniProt Q14145)
T1 sequence (Q16236 whole entry): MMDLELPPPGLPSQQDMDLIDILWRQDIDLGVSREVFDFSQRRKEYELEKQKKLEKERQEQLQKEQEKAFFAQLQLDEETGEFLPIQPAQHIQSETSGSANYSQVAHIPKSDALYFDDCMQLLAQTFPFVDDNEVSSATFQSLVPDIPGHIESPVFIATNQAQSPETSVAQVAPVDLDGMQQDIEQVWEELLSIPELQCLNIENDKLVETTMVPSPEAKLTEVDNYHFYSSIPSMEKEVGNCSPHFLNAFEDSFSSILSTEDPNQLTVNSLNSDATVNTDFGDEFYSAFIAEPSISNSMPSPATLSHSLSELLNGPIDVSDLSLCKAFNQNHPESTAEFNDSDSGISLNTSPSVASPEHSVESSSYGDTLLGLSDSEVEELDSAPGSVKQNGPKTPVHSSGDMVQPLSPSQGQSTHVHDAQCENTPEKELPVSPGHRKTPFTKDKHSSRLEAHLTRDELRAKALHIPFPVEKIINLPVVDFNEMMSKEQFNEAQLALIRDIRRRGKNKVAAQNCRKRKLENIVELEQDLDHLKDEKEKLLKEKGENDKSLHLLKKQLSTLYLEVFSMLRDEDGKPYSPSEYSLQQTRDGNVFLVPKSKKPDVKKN
T1 sequence (Q14145 whole entry): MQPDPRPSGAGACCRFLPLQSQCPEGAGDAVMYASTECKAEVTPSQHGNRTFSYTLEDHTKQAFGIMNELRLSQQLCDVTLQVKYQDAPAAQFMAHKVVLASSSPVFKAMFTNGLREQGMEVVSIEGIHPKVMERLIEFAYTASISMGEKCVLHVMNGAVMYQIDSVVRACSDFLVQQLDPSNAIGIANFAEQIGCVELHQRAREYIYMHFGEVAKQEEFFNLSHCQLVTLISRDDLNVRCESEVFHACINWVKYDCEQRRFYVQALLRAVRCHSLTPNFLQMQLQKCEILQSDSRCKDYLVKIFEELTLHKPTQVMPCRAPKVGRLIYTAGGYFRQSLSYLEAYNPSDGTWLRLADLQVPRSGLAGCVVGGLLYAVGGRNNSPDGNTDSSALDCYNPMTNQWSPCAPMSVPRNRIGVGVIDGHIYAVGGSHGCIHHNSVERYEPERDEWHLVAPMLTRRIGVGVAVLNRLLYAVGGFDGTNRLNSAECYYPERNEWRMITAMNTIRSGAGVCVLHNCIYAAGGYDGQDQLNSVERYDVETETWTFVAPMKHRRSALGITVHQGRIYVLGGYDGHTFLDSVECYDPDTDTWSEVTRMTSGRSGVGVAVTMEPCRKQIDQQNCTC

[2] = biological target: T2, Kelch-like ECH-associated protein 1 (Homo sapiens, UniProt Q14145); assay: Binding affinity to human KEAP1 by fluorescence polarization assay
T2 sequence (Q14145 whole entry, the tested form may be a part): as the sequence (Q14145 whole entry) above

[3] = biological target: T2, Kelch-like ECH-associated protein 1; assay: Binding affinity to human KEAP1 Kelch domain (residues Ala321-Thr609) expressed in Escherichia coli BL21(DE3) cells assessed as dissociation constant by isothermal titration calorimetric analysis
[4] = biological target: T2, Kelch-like ECH-associated protein 1; assay: Binding affinity to human KEAP1 Kelch domain (residues Ala321-Thr609) expressed in Escherichia coli BL21(DE3) cells assessed as dissociation constant by SPR direct binding assay
Keap1/Nrf2 [5] = biological target: T1, Keap1/Nrf2; assay: Inhibition of human Keap1-Nrf2 protein-protein interaction expressed in U2OS cells incubated for 6 hrs by cellular Keap1-Nrf2 functional assay; assay type: cell-based
[6] = biological target: T2, Kelch-like ECH-associated protein 1; assay: Binding affinity to human KEAP1 Kelch domain by SPR direct binding assay
[7] = biological target: T2, Kelch-like ECH-associated protein 1; assay: Binding affinity to human KEAP1 by fluorescence anisotropy assay
[8] = biological target: T2, Kelch-like ECH-associated protein 1
[9] = biological target: T2, Kelch-like ECH-associated protein 1; assay: Binding affinity to human KEAP1 incubated for 1 hr by absorbance based analysis
Keap1/Nrf2 [10] = biological target: T1, Keap1/Nrf2; remark: listed apart in the source
[11] = biological target: T2, Kelch-like ECH-associated protein 1; remark: listed apart in the source
Keap1/Nrf2 [12] = biological target: T1, Keap1/Nrf2; assay: Inhibition of human Keap1-Nrf2 protein-protein interaction by ELISA method; assay type: protein assay

IC50 (Keap1/Nrf2 [1]): 100000 nM and 185000 nM
Structure (SMILES): COC1=C(NCC(=O)O)CC(O)(CO)C/C1=N\C(C(=O)O)C(C)O (stereo not drawn)

Kd [2]: 100 nM
Structure (SMILES): N[C@@H](CC(=O)O)C(=O)N[C@@H](CC(=O)O)C(=O)N[C@@H](Cc1c[nH]c2ccccc12)C(=O)O (H-Asp-Asp-Trp-OH)

Kd [3]: 10 µM | Kd [4]: 77 µM
Structure (SMILES): N[C@@H](CCC(=O)O)C(=O)N[C@@H](Cc1c[nH]c2ccccc12)C(=O)N[C@@H](Cc1c[nH]c2ccccc12)C(=O)N[C@@H](Cc1c[nH]c2ccccc12)C(=O)O (H-EWWW-OH)

Structure (SMILES): CC(C)C[C@@H]1NC(=O)[C@H](Cc2ccccc2)NC(=O)[C@H](CCC(=O)O)NC(=O)CNC(=O)[C@H]([C@@H](C)O)NC(=O)[C@H](CCC(=O)O)NC(=O)[C@@H]2CCCN2C(=O)[C@H](CC(=O)O)NC(=O)[C@H](CC(C)C)NC(=O)[C@H](CCC(=O)NCCOCCOCC(=O)NCCCC[C@H](NC(=O)CC[C@@H]2NC(=O)[C@H](CCCNC(=N)N)NC(=O)[C@H](CCCNC(=N)N)NC(=O)[C@H](CCCNC(=N)N)NC(=O)[C@H](CCCNC(=N)N)NC(=O)[C@H](Cc3ccc4ccccc4c3)NC(=O)[C@H](Cc3ccccc3)NC2=O)C(N)=O)NC(=O)CNC1=O (I: cyclo(DPETGEFLGEL) / II: cyclo([2Nal]RRRREF); linker I:10-II:6 via X1)
Kd [2]: 48 nM | IC50 (Keap1/Nrf2 [1]): 153 nM

EC50 (Keap1/Nrf2 [5]): 1460 nM
Structure (SMILES): CC1=NN(c2ccccc2)C(=O)/C1=C/c1ccc(OS(=O)(=O)c2ccccc2[N+](=O)[O-])cc1

Kd [2]: 51 nM
Structure (SMILES): CC[C@H](C)[C@@H]1NC(=O)[C@H](CC(=O)O)NC(=O)[C@H](CCC(N)=O)NC(=O)[C@H](CCCNC(=N)N)NC(=O)[C@H](Cc2c[nH]c3ccccc23)NC(=O)[C@H](CC(C)C)NC(=O)[C@H]([C@@H](C)CC)NC(=O)[C@H](CC(=O)O)NC(=O)[C@@H](NC(=O)[C@H](CC(C)C)NC(=O)[C@H](CC(=O)O)NC(=O)[C@@H](N)CCSC)CSSC[C@@H](C(=O)N[C@@H](Cc2ccccc2)C(=O)N[C@@H](CO)C(=O)O)NC(=O)[C@H](Cc2ccccc2)NC(=O)[C@H](C(C)C)NC(=O)[C@H](CCC(=O)O)NC(=O)[C@H](CCCNC(=N)N)NC(=O)[C@H](CO)NC(=O)[C@H](C(C)C)NC(=O)CNC(=O)[C@H](CC(C)C)NC(=O)[C@H](CC(=O)O)NC1=O (H-MDLCDILWRQDIDLGVSREVFCFS-OH; disulfide 4-22)

Kd [6]: 19.6 µM
Structure (SMILES): O=c1c2ccccc2nc2c3[nH]c4ccccc4c3ccn12

Kd [7]: 1140 nM | Kd [8]: 453 nM
Structure (SMILES): CCc1ccc(S(=O)(=O)N(CC(=O)O)c2cc(Sc3nc[nH]n3)c(O)c3ccccc23)cc1

Kd [9]: 43 nM
Structure (SMILES): CC[C@H](C)[C@@H]1NC(=O)[C@H](CC(=O)O)NC(=O)[C@@H](N)Cc2ccc(cc2)OCCSC[C@@H](C(=O)O)NC(=O)[C@H](CCC(=O)O)NC(=O)CNC(=O)[C@H]([C@@H](C)O)NC(=O)[C@H](CCC(=O)O)NC1=O (H-YDIETGEC-OH; linker 1-8 via CH2CH2)

IC50 (Keap1/Nrf2 [1]): 10 nM
Structure (SMILES): C[C@H](Oc1cccc(-c2cccc(-n3ncc(C(=O)O)c3[C@@H]3C[C@H]3c3cn(C)nn3)c2)c1)C1CCCCC1

IC50 (Keap1/Nrf2 [10]): 15.8 nM | Kd [11]: 39.8 nM | IC50 (Keap1/Nrf2 [1]): 14.4 nM
Structure (SMILES): COc1ccc(S(=O)(=O)N(Cc2nnn[nH]2)c2ccc(N(Cc3nnn[nH]3)S(=O)(=O)c3ccc(OC)cc3)c3ccccc23)cc1

Structure (SMILES): CC(=O)N1CCN(c2ccc(OCC3COC(Cn4ccnc4)(c4ccc(Cl)cc4Cl)O3)cc2)CC1 (stereo not drawn) [KETOCONAZOLE]
IC50 (Keap1/Nrf2 [12]): 1670 nM

IC50 (Keap1/Nrf2 [1]): 100000 nM and 185000 nM
Structure (SMILES): COC1=C(NCC(=O)O)CC(O)(CO)C/C1=N\C(CO)C(=O)O (stereo not drawn)

IC50 (Keap1/Nrf2 [1]): 63 nM
Structure (SMILES): CCCCC1CCCN1C(=O)c1cccc(-c2cccc(-n3ncc(C(=O)O)c3C3CC3)c2)c1 (stereo not drawn)

Kd [9]: 40 nM
Structure (SMILES): C[C@@H]1NC(=O)[C@H](CC(=O)O)NC(=O)[C@@H](N)Cc2ccc(cc2)OCCSC[C@@H](C(=O)O)NC(=O)[C@H](CCC(=O)O)NC(=O)CNC(=O)[C@H]([C@@H](C)O)NC(=O)[C@H](CCC(=O)O)NC1=O (H-YDAETGEC-OH; linker 1-8 via CH2CH2)

Kd [2]: 120 nM
Structure (SMILES): NCCCC[C@H](NC(=O)[C@H](CCCCN)NC(=O)[C@@H](N)CC(=O)O)C(=O)O (H-Asp-Lys-Lys-OH)

Structure (SMILES): O=C(O)c1ccc(NC2=C/C(=N/S(=O)(=O)c3ccc4ccccc4c3)c3ccccc3C2=O)cc1
Kd [8]: 158 nM | IC50 (Keap1/Nrf2 [1]): 2700 nM
